One test relates to guayule explants. The following applies: for Size of Callus with multi shoots: 5-point scale. The procedure: To evaluate the effect of calcium nitrate on guayule regeneration, guayule explants were cultured on MS basal medium with plant growth regulators (PGRs) (1.0 mg·L^−1 BA and 0.1 mg·L^−1 NAA) and calcium nitrate. […] calcium nitrate concentrations, 0, 100, 250, 500, 750, 1000 and 1500 mg·L^−1, were tested (Table 3). Calcium nitrate was added to the culture medium before adjusting the pH to 5.7, prior to autoclaving. DKW basal medium (0.75 mg·L^−1 BA and 0.25 mg·L^−1 NAA) was used as a control.

A further test relates to guayule leaf explants. In words: Resistance of regenerated shoot on media with spectinomycin. The format is cell-based, Parthenium argentatum. As for the experimental part:
To confirm whether the guayule explants were resistant to spectinomycin, leaf explants from control plants were cultured on regeneration DKW media that contained 0.75 mg·L^−1 BA and 0.125 mg·L^−1 NAA at various spectinomycin antibiotic levels. Several concentration of spectinomycin (0, 2, 4, 6, 8, 10, 12, 14, 16, 18 and 20 mg·L^−1) was added to the media to confirm the effects of antibiotic concentration on regeneration.

The values that follow come from patent publication US9523097B2, “Engineering rubber production in plants” (The United States of America, as represented by the …, priority 2013, dated 2016).

Where two headings read alike, the source gives them in different places.

`O.O.O.O.O=[N+]([O-])[O-].O=[N+]([O-])[O-].[Ca+2]` [Calcium Nitrate, calcium nitrate tetrahydrate]: the “Size of Callus with multi shoots” value in the test with guayule explants (100 mg·L−1, DKW with 0.75 mg·L−1 BA and 0.25 mg·L−1 NAA) is given as 3.0b; in the test on guayule explants (100 mg·L−1, MS with 1.0 mg·L−1 BA and 0.1 mg·L−1 NAA), 4.5a; in the test on guayule explants (250 mg·L−1, DKW with BA/NAA) it was 2.9b; in the test with guayule explants (250 mg·L−1, MS with BA/NAA), 4.4a; in the test on guayule explants (500 mg·L−1, DKW with BA/NAA), 2.2bc; with guayule explants (500 mg·L−1, MS with BA/NAA) it was 4.1ab. Besides, the “Size of Callus with multi shoots” value came to 2.0c with guayule explants (1000 mg·L−1, DKW with BA/NAA); 3.6c with guayule explants (1000 mg·L−1, MS with BA/NAA); 1.7 days with guayule explants (1500 mg·L−1, DKW with BA/NAA); 2.1 days with guayule explants (1500 mg·L−1, MS with BA/NAA). Moreover, the “Number of elongated shoots” value with guayule explants (100 mg·L−1, DKW with 0.75 mg·L−1 BA and 0.25 mg·L−1 NAA, per total explants) is given as 6/30; in the test on guayule explants (100 mg·L−1, MS with 1.0 mg·L−1 BA and 0.1 mg·L−1 NAA, per total explants) it was 3/30; in the test with guayule explants (250 mg·L−1, DKW with BA/NAA, per total explants), 3/30; in the test with guayule explants (250 mg·L−1, MS with BA/NAA, per total explants) it was 13/30; in the test on guayule explants (500 mg·L−1, DKW with BA/NAA, per total explants) it was 0/30; in the test with guayule explants (500 mg·L−1, MS with BA/NAA, per total explants), 6/30. In addition, the “Number of elongated shoots” value with guayule explants (1000 mg·L−1, DKW with BA/NAA, per total explants) is 0/30; in the test on guayule explants (1000 mg·L−1, MS with BA/NAA, per total explants), 0/30; in the test on guayule explants (1500 mg·L−1, DKW with BA/NAA, per total explants), 0/30; in the test with guayule explants (1500 mg·L−1, MS with BA/NAA, per total explants), 0/30; in the test on guayule explants (moderate concentrations (0, 100, 250, 500 and 1000 mg·L−1), MS and DKW medium), “significantly improved”. For the same molecule, the “effect on elongated shoots” value in the test with guayule explants (higher concentrations) is reported as “negative effect”.
For `CN[C@@H]1[C@H](O)[C@H](NC)[C@H]2O[C@@]3(O)C(=O)C[C@@H](C)O[C@H]3O[C@@H]2[C@H]1O` [spectinomycin], the “concentration fatal to guayule plants” value with guayule leaf explants is listed as “about 12 mg/L”. Besides, the “Callus formation and shoot emergence” value with guayule leaf explants (8 mg·L−1, DKW regeneration medium) is given as “not affected”; with guayule leaf explants (10 mg·L−1, DKW regeneration medium), “significantly reduced”; in the test with guayule leaf explants (12 mg·L−1 or higher, DKW regeneration medium), “completely inhibited”.
